According to US20250319063A1, “METHODS AND COMPOUNDS FOR RESTORING MUTANT P53 FUNCTION” (PMV PHARMACEUTICALS, INC., priority 2022, published 2025):
“Also recorded” adds a separate entry of the source. Where two headings read alike, the source gives them in different places.

Assay: Single oral dose plasma pharmacokinetics in fasted and fed healthy subjects (food effect, ethnicity)
Type: in vivo, human
Details: for Tmax / Vd/F / half-life / AUC(0-t) / AUC(0-inf) / Cmax: both sexes, human, plasma, po; for Vd/F: read-out: Vz/F, GeoMean; for half-life: read-out: t½, GeoMean (converted)
Experimental: Compound 1 pharmacokinetics were analyzed in healthy subjects administered Compound 1 in a fasted state. A subject was considered fasted if the subject fasted overnight for at least 10 hours and water was permitted ad libitum except for 1 hour before and after drug administration. For fasted subjects, Compound 1 was administered with at least 8 ounces (240 mL) of water. Compound 1 pharmacokinetics were also analyzed in healthy subjects administered Compound 1 in a fed state. A subject was considered fed after consuming a high-fat meal 30 minutes prior to drug administration, and the meal was finished at least 5 minutes prior to drug administration. For both fasted and fed subjects, no food was permitted for at least 4 hours post-dose and water was permitted starting at 1 hour post-dose.
Subjects were healthy, non-smoking male and female Caucasian/non-Asian or Japanese participants 18 to 55 years of age with a BMI between […].
In Part 1 of the study, analysis was performed to compare 1000 mg Compound 1 in fed and fasted states. A dose of 1000 mg of Compound 1 consisted of two 500 mg tablets administered as a single oral dose. The analysis of Part 1 was performed at two separate time points in two different schemes (1A and 1B).
In scheme 1A, at period 1, Compound 1 analyzed in healthy subjects administered 1000 mg Compound 1 (n=3) in a fed state. Following a washout period of 7-9 days, these subjects were then administered 1000 mg Compound 1 in a fasted state.
Separately, in scheme 1B, at period 1, Compound 1 was analyzed in healthy subjects administered 1000 mg Compound 1 (n=3) in a fasted state. Following a washout period of 7-9 days, these subjects were then administered 1000 mg Compound 1 in a fed state.
In Part 2 of the study, analysis was performed to compare 2000 mg Compound 1 in fed and fasted states and also to compared ethnicity of Caucasian/non-Asian subjects and Japanese subjects. A dose of 2000 mg of Compound 1 consisted of four 500 mg tablets administered as a single oral dose.
For Caucasian/non-Asian subjects (n=20) the analysis was performed at two separate time points in two different schemes (2A and 2B). During scheme 2A, at period 1, Compound 1 was analyzed in subjects administered 2000 mg Compound 1 (n=10) in a fed state. Following a washout period of 7-9 days, at period 2, these subjects were then administered 2000 mg Compound 1 in a fasted state. Separately in scheme 2B, at period 1, Compound 1 was analyzed in subjects administered 2000 mg Compound 1 (n=10) in a fasted state. Following a washout period of 7-9 days, at period 2, these subjects were then administered 2000 mg Compound 1 in a fed state.
For Japanese subjects (n=6), Compound 1 pharmacokinetics were analyzed in subjects administered 2000 mg Compound 1 in a fasted state.
Blood for the analysis of study drug (Compound 1) and metabolite (M1) were collected.
Various pharmacokinetic (PK) parameters were determined for each subject. (Tables 9-12 and FIGS. 23-28).
Statistical analysis of Compound 1 plasma PK parameters were evaluated for food effects for Part 1 (Table 11) and Part 2 (Table 12). The log-transformed PK parameters were analyzed using an analysis of variance model with treatment (fed/fasted condition) and period as fixed effects and participant as a random effect.

[1] = 1000 mg, 1000 mg oral, Fasted (Part 1)
[2] = 1000 mg, 1000 mg oral, Fed (Part 1)
[3] = 2000 mg, 2000 mg oral, Fasted, Caucasian/Non-Asian
[4] = 2000 mg, 2000 mg oral, Fasted, Japanese
[5] = 2000 mg, 2000 mg oral, Fed, Caucasian/Non-Asian

Question: For CNC(=O)c1ccc(NCC#Cc2cc3c(N[C@@H]4CCN(C)C[C@@H]4F)cccc3n2CC(F)(F)F)c(OC)c1 [Compound 1, 4-((3-(4-(((3S,4R)-3-fluoro-1-methylpiperidin-4-yl)amino)-1-(2,2,2-trifluoroethyl)-1H-indol-2-yl)prop-2-yn-1-yl)amino)-3-methoxy-N-methylbenzamide], which Tmax (1000 mg, 1000 mg oral, Fasted (Part 1), read-out: Tmax, Minimum, Maximum) is on record?
Answer: 1.54 to 2.51 h

Question: And the Vd/F [1]?
Answer: 148 L

Question: And the half-life [1]?
Answer: 924 min

Question: And the AUC(0-t) (1000 mg, 1000 mg oral, Fed (Part 1), read-out: AUC0-24, GeoMean)?
Answer: 119 µg·h/mL

Question: And the AUC(0-t) (1000 mg, 1000 mg oral, Fed (Part 1), read-out: AUC0-96, GeoMean)?
Answer: 177 µg·h/mL

Question: And the AUC(0-inf) (1000 mg, 1000 mg oral, Fed (Part 1), read-out: AUC0-inf, GeoMean)?
Answer: 180 µg·h/mL

Question: And the AUC(0-inf) (1000 mg, 1000 mg oral, Fed (Part 1), read-out: AUC0-inf, Geometric Mean (analysis of variance model))?
Answer: 180 µg·h/mL

Question: And the AUC(0-t) (1000 mg, 1000 mg oral, Fed (Part 1), read-out: AUC0-last, GeoMean)?
Answer: 177 µg·h/mL

Question: And the AUC(0-t) (1000 mg, 1000 mg oral, Fed (Part 1), read-out: AUC0-last, Geometric Mean (analysis of variance model))?
Answer: 177 µg·h/mL

Question: What about the Cmax (1000 mg, 1000 mg oral, Fed (Part 1), read-out: Cmax, GeoMean) of the same compound?
Answer: 10600 ng/mL

Question: What about the Cmax (1000 mg, 1000 mg oral, Fed (Part 1), read-out: Cmax, Geometric Mean (analysis of variance model)) of the same compound?
Answer: 10600 ng/mL

Question: What about the Tmax (1000 mg, 1000 mg oral, Fed (Part 1), read-out: Tmax, Median) of the same compound?
Answer: 3.25 h

Question: What about the Tmax (1000 mg, 1000 mg oral, Fed (Part 1), read-out: Tmax, Minimum, Maximum) of the same compound?
Answer: 1.51 to 5.01 h

Question: And the Vd/F [2]?
Answer: 127 L

Question: And the half-life [2]?
Answer: 948 min

Question: What about the AUC(0-inf) (2000 mg, 2000 mg oral, Fasted (Part 2), read-out: AUC0-inf, Geometric Mean (analysis of variance model)) of the same compound?
Answer: 260 µg·h/mL

Question: And the AUC(0-t) (2000 mg, 2000 mg oral, Fasted (Part 2), read-out: AUC0-last, Geometric Mean (analysis of variance model))?
Answer: 259 µg·h/mL

Question: What about the Cmax (2000 mg, 2000 mg oral, Fasted (Part 2), read-out: Cmax, Geometric Mean (analysis of variance model)) of the same compound?
Answer: 10400 ng/mL

Question: And the AUC(0-t) (2000 mg, 2000 mg oral, Fasted, Caucasian/Non-Asian, read-out: AUC0-24, GeoMean)?
Answer: 138 µg·h/mL

Question: What about the AUC(0-t) (2000 mg, 2000 mg oral, Fasted, Caucasian/Non-Asian, read-out: AUC0-96, GeoMean) of the same compound?
Answer: 255 µg·h/mL

Question: What about the AUC(0-inf) (2000 mg, 2000 mg oral, Fasted, Caucasian/Non-Asian, read-out: AUC0-inf, GeoMean) of the same compound?
Answer: 259 µg·h/mL

Question: What about the AUC(0-t) (2000 mg, 2000 mg oral, Fasted, Caucasian/Non-Asian, read-out: AUC0-last, GeoMean) of the same compound?
Answer: 254 µg·h/mL

Question: And the Cmax (2000 mg, 2000 mg oral, Fasted, Caucasian/Non-Asian, read-out: Cmax, GeoMean)?
Answer: 10300 ng/mL

Question: What about the Tmax (2000 mg, 2000 mg oral, Fasted, Caucasian/Non-Asian, read-out: Tmax, Median) of the same compound?
Answer: 2.52 h

Question: What about the Tmax (2000 mg, 2000 mg oral, Fasted, Caucasian/Non-Asian, read-out: Tmax, Minimum, Maximum) of the same compound?
Answer: 1.03 to 5.94 h

Question: And the Vd/F [3]?
Answer: 212 L

Question: And the half-life [3]?
Answer: 1190 min

Question: And the AUC(0-t) (2000 mg, 2000 mg oral, Fasted, Japanese, read-out: AUC0-24, GeoMean)?
Answer: 193 µg·h/mL

Question: What about the AUC(0-t) (2000 mg, 2000 mg oral, Fasted, Japanese, read-out: AUC0-96, GeoMean) of the same compound?
Answer: 326 µg·h/mL

Question: And the AUC(0-inf) (2000 mg, 2000 mg oral, Fasted, Japanese, read-out: AUC0-inf, GeoMean)?
Answer: 338 µg·h/mL

Question: What about the AUC(0-t) (2000 mg, 2000 mg oral, Fasted, Japanese, read-out: AUC0-last, GeoMean) of the same compound?
Answer: 326 µg·h/mL

Question: And the Cmax (2000 mg, 2000 mg oral, Fasted, Japanese, read-out: Cmax, GeoMean)?
Answer: 14700 ng/mL

Question: And the Tmax (2000 mg, 2000 mg oral, Fasted, Japanese, read-out: Tmax, Median)?
Answer: 3.94 h

Question: What about the Vd/F [4] of the same compound?
Answer: 149 L

Question: And the half-life [4]?
Answer: 1040 min

Question: And the AUC(0-inf) (2000 mg, 2000 mg oral, Fed (Part 2), read-out: AUC0-inf, Geometric Mean (analysis of variance model))?
Answer: 465 µg·h/mL

Question: And the AUC(0-t) (2000 mg, 2000 mg oral, Fed (Part 2), read-out: AUC0-last, Geometric Mean (analysis of variance model))?
Answer: 449 µg·h/mL

Question: And the Cmax (2000 mg, 2000 mg oral, Fed (Part 2), read-out: Cmax, Geometric Mean (analysis of variance model))?
Answer: 19100 ng/mL

Question: What about the AUC(0-t) (2000 mg, 2000 mg oral, Fed, Caucasian/Non-Asian, read-out: AUC0-24, GeoMean) of the same compound?
Answer: 250 µg·h/mL

Question: And the AUC(0-t) (2000 mg, 2000 mg oral, Fed, Caucasian/Non-Asian, read-out: AUC0-96, GeoMean)?
Answer: 448 µg·h/mL

Question: And the AUC(0-inf) (2000 mg, 2000 mg oral, Fed, Caucasian/Non-Asian, read-out: AUC0-inf, GeoMean)?
Answer: 479 µg·h/mL

Question: What about the AUC(0-t) (2000 mg, 2000 mg oral, Fed, Caucasian/Non-Asian, read-out: AUC0-last, GeoMean) of the same compound?
Answer: 448 µg·h/mL

Question: And the Cmax (2000 mg, 2000 mg oral, Fed, Caucasian/Non-Asian, read-out: Cmax, GeoMean)?
Answer: 19000 ng/mL

Question: What about the Tmax (2000 mg, 2000 mg oral, Fed, Caucasian/Non-Asian, read-out: Tmax, Median) of the same compound?
Answer: 4.03 h

Question: And the Tmax (2000 mg, 2000 mg oral, Fed, Caucasian/Non-Asian, read-out: Tmax, Minimum, Maximum)?
Answer: 2.11 to 8.08 h

Question: What about the Vd/F [5] of the same compound?
Answer: 137 L

Question: And the half-life [5]?
Answer: 1360 min

Question: What about the plasma concentration-time profile (single oral doses) of the same compound?
Answer: reached the maximum peak rapidly and declined roughly in a bi-exponential manner; also recorded: rapidly absorbed
